Target: Tumor necrosis factor receptor superfamily member 10B (Homo sapiens) (UniProt O14763)
Assay: Induction of DR5 promoter activity in SacI gene expressing human DLD1 cells at 10 to 30 uM after 24 hrs by luciferase reporter gene assay relative to control
Assay type: cell-based
Settings: DLD-1

Chain of Tumor necrosis factor receptor superfamily member 10B (Homo sapiens) (O14763 whole entry): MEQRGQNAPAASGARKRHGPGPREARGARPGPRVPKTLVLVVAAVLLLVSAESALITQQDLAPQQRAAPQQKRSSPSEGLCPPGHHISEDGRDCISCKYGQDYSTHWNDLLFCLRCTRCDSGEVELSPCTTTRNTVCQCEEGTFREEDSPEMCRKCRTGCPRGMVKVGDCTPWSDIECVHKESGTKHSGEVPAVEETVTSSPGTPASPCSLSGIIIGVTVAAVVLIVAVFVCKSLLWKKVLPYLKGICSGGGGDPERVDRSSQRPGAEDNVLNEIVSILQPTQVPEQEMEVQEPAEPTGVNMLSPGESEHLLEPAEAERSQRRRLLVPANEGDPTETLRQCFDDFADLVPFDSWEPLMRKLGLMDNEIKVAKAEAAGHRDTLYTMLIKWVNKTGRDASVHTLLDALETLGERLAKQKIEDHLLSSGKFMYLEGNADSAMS

COc1c(O)cc2oc3cc(O)c(CC=C(C)C)c(O)c3c(=O)c2c1CC=C(C)C
fold change (FC): 3.8

CC(C)=CCc1c(O)c(CC=C(C)C)c2oc3c(O)ccc(O)c3c(=O)c2c1O
fold change (FC): 3.1

COc1c(O)cc2oc3cc4c(c(O)c3c(=O)c2c1CC=C(C)C)C=CC(C)(C)O4
fold change (FC): 4

Reference: ChEMBL document CHEMBL1154324, “Activity of mangosteen xanthones and teleocidin a-2 in death receptor expression enhancement and tumor necrosis factor related apoptosis-inducing ligand assays” (J Nat Prod, 2010)
